From patent US11891403B2, “Tetrazole derivatives as TRPA1 inhibitors” (Boehringer Ingelheim International GmbH, priority 2020, dated 2024)

Legend:
[1] = Assay C: Hepatocyte clearance; type: in vitro ADME, human; conditions: cryopreserved hepatocyte suspension, test compound 1 μM, up to 6 h; predicted clearance as % of hepatic blood flow
Procedure: Assay C: Hepatocyte Clearance
The metabolic degradation of the test compound is assayed in a hepatocyte suspension. Hepatocytes (cryopreserved) are incubated in Dulbecco's modified eagle medium (supplemented with 3.5 μg glucagon/500 mL, 2.5 mg insulin/500 mL and 3.75 mg/500 mL hydrocortison) containing 5% or 50% species serum.
The cells are incubated for six hours (incubator, orbital shaker) and samples (25 μl) are taken at 0, 0.5, 1, 2, 4 and 6 hours. Samples are transferred into acetonitrile and pelleted by centrifugation (5 min). The supernatant is transferred to a new 96-deepwell plate, evaporated under nitrogen and resuspended.
Decline of parent compound is analyzed by HPLC-MS/MS
CLint is calculated as follows CL_[…]=Dose/AUC=(CO/CD)/(AUD+clast/k)×1000/60. CO: initial concentration in the incubation [P M], CD: cell density of vital cells [10e6 cells/mL], AUD: area under the data [μM×h], clast: concentration of last data point [μM], k: slope of the regression line for parent decline [h−1].
The calculated in vitro hepatic intrinsic clearance can be scaled up to the intrinsic in vivo hepatic Clearance and used to predict hepatic in vivo blood clearance (CL) by the use of a liver model (well stirred model). CL_[…]_INVIVO [ml/min/kg]=(CL_[…] [μL/min/10e6 cells]×hepatocellularity [10e6 cells/g liver]×liver factor [g/kg bodyweight])/1000 CL [ml/min/kg]=CL_[…]_INVIVO [ml/min/kg]×hepatic blood flow [ml/min/kg]/(CL_[…]_INVIVO [ml/min/kg]+hepatic blood flow [ml/min/kg]) Qh [%]=CL [ml/min/kg]/hepatic blood flow [ml/min/kg])
(§1) Hepatocellularity, human: 120×10e6 cells/g liver
(§2) Liver factor, human: 25.7 g/kg bodyweight
(§3) Blood flow, human: 21 ml/(min×kg)

[2] = Assay B: Microsomal clearance; type: in vitro ADME, human; conditions: pooled liver microsomes 1 mg/ml, test compound 1 μM, 37° C., NADPH; clearance as % of hepatic blood flow
Procedure: Assay B: Microsomal Clearance:
The metabolic degradation of the test compound is assayed at 37° C. with pooled liver microsomes. The final incubation volume of 100 μl per time point contains TRIS buffer pH 7.6 at RT (0.1 M), magnesium chloride (5 mM), microsomal protein (1 mg/ml) and the test compound at a final concentration of 1 μM.
Following a short preincubation period at 37° C., the reactions are initiated by addition of beta-nicotinamide adenine dinucleotide phosphate, reduced form (NADPH, 1 mM) and terminated by transferring an aliquot into solvent after different time points (0, 5, 15, 30, 60 min). Additionally, the NADPH-independent degradation is monitored in incubations without NADPH, terminated at the last time point. The [%] remaining test compound after NADPH independent incubation is reflected by the parameter c (control) (metabolic stability). The quenched incubations are pelleted by centrifugation (10000 g, 5 min).
An aliquot of the supernatant is assayed by LC-MS/MS for the amount of parent compound. The half-life (t½ INVITRO) is determined by the slope of the semilogarithmic plot of the concentration-time profile.
The intrinsic clearance (CL_[…]) is calculated by considering the amount of protein in the incubation: CL_[…] [μl/min/mg protein]=(Ln 2/(half-life [min]*protein content [mg/ml]))*1000 CL_[…]_INVIVO [ml/min/kg]=(CL_[…] [μL/min/mg protein]×MPPGL [mg protein/g liver]×liver factor [g/kg bodyweight])/1000 Qh [%]=CL [ml/min/kg]/hepatic blood flow [ml/min/kg])
as §1, §2, §3

human TRPA1 ion channel = biological target: T1, human TRPA1 ion channel (Homo sapiens, UniProt O75762); assay: Assay A: TRPA1 assay (FLIPRtetra, AITC-induced intracellular calcium); type: cell-based; conditions: HEK293 cell line over-expressing human TRPA1, AITC agonism (final 10 μM), AUC of calcium signal, read-out: hTRPA1 IC50
T1 construct: host or cells: HEK293
Procedure: A human HEK293 cell line over-expressing the human TRPA1 ion channel (Perkin Elmer, Product No. AX-004-PCL) is used as a test system for compound efficacy and potency. Compound activity is determined by measuring the effect of compounds on intracellular calcium concentration induced by AITC (Allylisothiocyanat) agonism in a FLIPRtetra system (Molecular Devices).
The cells are obtained as frozen cells in cryo-vials and stored until use at −150° C.
Cells are grown in culture medium (MEM/EBSS medium with 10% FCS and 0.4 mg/ML Geneticin). […] For sub-culturing cells are detached from flasks by Versene. At the day before the assay, cells are detached, washed twice with medium (MEM/EBSS medium with 10% FCS) and 20000 cells in 20 μl/well are seeded to Poly D-Lysin biocoated 384-well plates (black, clear bottom, Cat. 356697) from Corning. Plates are incubated for 24 hours at 37° C./5% C02 before use in the assay.
The test compounds are dissolved in 100% DMSO at a concentration of 10 mM and in a first step diluted in DMSO to a concentration of 5 mM, followed by serial dilution steps in 100% DMSO. Dilution factor and number of dilution steps may vary according to needs. Typically 8 different concentrations by 1:5 dilutions are prepared, further intermediate dilutions (1:20) of the substances are carried out with HBSS/HEPES buffer (1×HEPES, Cat. 14065 from Gibco, 20 mM HEPES, Cat. 83264 from SIGMA, 0.1% BSA Cat. 11926 from Invitrogen, pH 7.4
At the assay day cells are washed 3× with assay puffer, 20 μL buffer remaining in the wells after washing. 10 μL Ca6 kit (Cat. R8191 Molecular Devices) loading buffer in HBSS/HEPES is added to the cells and the plates are incubated with lid for 120 minutes at 37°/5% CO2. 10 μL of compound or controls in HBSS/HEPES buffer/5% DMSO from the intermediate dilution plate are carefully added to the wells. […] Finally 10 μL of the agonist AITC 50 μM dissolved in HBSS/HEPES buffer/0.05% DMSO (final concentration 10 μM) is added to the wells followed by an additional read on the FLIPRtetra device for 10 minutes. The area under the signal curve (AUC) after AITC addition is used for IC50/% inhibition calculations
Data Evaluation and Calculation:
Each assay microtiter plate contains wells with vehicle (1% DMSO) controls instead of compound as controls for AITC induced luminescence (100% CTL; high controls) and is wells with vehicle controls without AITC as controls for non-specific changes in luminescence (0% CTL; low controls).
The analysis of the data is performed by the calculation of the area under signal curve of the individual wells. Based on this values the % value for the measurement of each substance concentration is calculated (AUC(sample)−AUC(low))*100/(AUC(high)−AUC(low)) using MegaLab software (in house development). The IC50 values are calculated from the % control values using MegaLab software. Calculation: [y=(ad)/(1+(x/c)^b)+d], a=low value, d=high value; x=conc M; c=IC50 M; b=hill; y=% ctrl

T1 sequence (O75762 whole entry): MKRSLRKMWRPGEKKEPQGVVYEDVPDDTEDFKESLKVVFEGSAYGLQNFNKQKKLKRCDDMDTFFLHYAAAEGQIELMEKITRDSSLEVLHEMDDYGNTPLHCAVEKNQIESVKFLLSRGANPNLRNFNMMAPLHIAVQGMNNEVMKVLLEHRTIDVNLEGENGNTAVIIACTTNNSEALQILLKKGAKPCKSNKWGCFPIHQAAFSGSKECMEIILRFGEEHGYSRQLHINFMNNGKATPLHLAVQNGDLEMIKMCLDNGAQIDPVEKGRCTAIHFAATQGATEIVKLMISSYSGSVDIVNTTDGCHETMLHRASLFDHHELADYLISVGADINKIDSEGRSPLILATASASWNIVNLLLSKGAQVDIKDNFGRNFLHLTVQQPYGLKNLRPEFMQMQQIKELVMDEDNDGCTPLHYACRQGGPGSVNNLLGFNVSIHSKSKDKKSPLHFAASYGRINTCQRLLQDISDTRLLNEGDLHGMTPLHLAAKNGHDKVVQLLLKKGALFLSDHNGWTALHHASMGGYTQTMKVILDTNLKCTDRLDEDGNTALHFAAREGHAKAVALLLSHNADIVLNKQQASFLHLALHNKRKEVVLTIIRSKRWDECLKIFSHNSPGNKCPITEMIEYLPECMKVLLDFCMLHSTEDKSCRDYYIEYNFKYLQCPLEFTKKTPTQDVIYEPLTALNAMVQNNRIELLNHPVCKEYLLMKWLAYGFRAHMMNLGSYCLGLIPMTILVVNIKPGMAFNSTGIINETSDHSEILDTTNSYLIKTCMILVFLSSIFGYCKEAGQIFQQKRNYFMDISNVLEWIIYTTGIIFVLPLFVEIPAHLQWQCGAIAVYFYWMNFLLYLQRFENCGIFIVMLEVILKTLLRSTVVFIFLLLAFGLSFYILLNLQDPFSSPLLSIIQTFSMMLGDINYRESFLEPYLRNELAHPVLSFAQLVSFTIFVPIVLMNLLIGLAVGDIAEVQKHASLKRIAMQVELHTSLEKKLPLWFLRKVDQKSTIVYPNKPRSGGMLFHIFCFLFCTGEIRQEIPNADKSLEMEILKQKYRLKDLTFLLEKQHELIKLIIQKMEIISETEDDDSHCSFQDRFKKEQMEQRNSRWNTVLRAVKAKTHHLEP

Row | SMILES | human Hepatocytes [% Qh] [1] [% Qh] | human LM [% Qh] [2] [% Qh] | IC50 (human TRPA1 ion channel) [nM]
1 | CN1C(=O)C(F)(F)Oc2ncn(Cc3nnn(C[C@H](O)c4ccc(Cl)cc4)n3)c(=O)c21 [Example 22] | 12 | 35 | 74
2 | C[C@H]1Oc2ncn(Cc3nnn(C[C@H](O)c4ccc(Cl)cc4)n3)c(=O)c2N(C)C1=O [Example 23] | 36 | 25 | 52
3 | C[C@@H]1Oc2ncn(Cc3nnn(C[C@H](O)c4ccc(Cl)cc4)n3)c(=O)c2N(C)C1=O [Example 24] | 16 | <23 | 100
